Assay results from patent US20040141939A1, “Cosmetic or dermatological use of peptides for promoting adhesion between skin cells” (priority 2001, published 2004).
Peptide text beside a SMILES is read from it.

Columns and labels:
[1] = Stability of the peptide by HPLC at various temperatures; assay type: physicochemical; conditions: 10^-4 M; after 8 days at 25° C.
Experimental: The Peptide Lys-Leu-Asp-Ala-Pro-Thr was analyzed with a concentration of 10^-4 M by HPLC on a column of the C18 type, and with a linear gradient water/TFA 0.1%-acetonitril/TFA 0.1%.

[2] = Stability of the peptide in culture medium conditioned by human fibroblasts and keratinocytes (released degradation enzymes), HPLC; assay type: in vitro ADME; conditions: medium from human fibroblasts and keratinocytes cultivated 24 hours at 37° C.; after 24 hours with peptide
Experimental: Human fibroblasts and keratinocytes were cultivated during 24 hours at 37° C. and 5% of CO2. For this period, the cells will release many degradation enzymes in the culture medium. Thereafter, the culture medium is removed to be put in the presence of the peptide.

[3] = system: fibroblasts and keratinocytes in culture; assay: Peptide applied to fibroblasts and keratinocytes in culture, HPLC analysis of the culture medium; assay type: in vitro ADME, human; conditions: in a few hours
Experimental: A test is carried out by applying the peptide to the fibroblasts and to the keratinocytes in culture.
This assumption is then consolidated by the tests of effectiveness exposed in the following examples.

keratinocytes = assay: Adhesion of keratinocytes to pre-treated 96 wells micro-plates (MTT, OD 560 nm against 630 nm); assay type: cell-based; conditions: Condition C: wells pre-treated 12 hours at 50 ppm; 3 hours contact with keratinocytes
Experimental: The study is carried out in 96 wells micro-plates on keratinocytes cultured in an incubator at 37° C. and 5% of CO2.
The wells of these plates are pre-treated, for 12 hours, in different ways; four conditions have been realized:
Condition A: negative control, not containing peptide;
Condition B: incubated with various peptides, made up from 3 to 25 amino acids, with a concentration of 35 ppm;
Condition C: incubated with fibronectin with a concentration of 50 ppm;
Condition D: incubated with the peptide of sequence Lys-Leu-Asp-Ala-Pro-Thr to a concentration of 5 ppm.
After 3 hours of contact with the keratinocytes, the wells are completely filled with medium, hermetically closed, turned over and agitated on a three-dimensional agitator during 20 minutes. Then the plates are emptied and the remaining medium is aspired. Then, 100 μl of MTT with 1 mg/ml are added by wells and are left for 3 hours at 37° C. and 5% CO2. The solution is finally withdrawn, then 100 μl of DMSO is added. A reading of the OD is made at 560 nm against 630 nm.
The OD is proportional to the quantity of viable cells, i.e. which adhered to the micro-plates.

Molecule	peptide degradation (HPLC) [1]	degradation of peptide in conditioned culture medium [2]	peptide concentration in culture medium [3]	O.D. (adhered viable cells) (keratinocytes)
CC(C)C[C@H](NC(=O)[C@@H](N)CCCCN)C(=O)N[C@@H](CC(=O)O)C(=O)N[C@@H](C)C(=O)N1CCC[C@H]1C(=O)N[C@H](C(=O)O)[C@@H](C)O [Lys-Leu-Asp-Ala-Pro-Thr] (H-KLDAPT-OH; N-terminus and C-terminus assumed)	no peptide degradation	almost no degradation	decreases quickly	
fibronectin				0.770
